Patent US20240114902A1, “COMPOSITIONS AND METHODS FOR DETERRING OVIPOSITION BY FRUIT FLIES” (The United States of America, as represented by The …, priority 2022, published 2024)

What was measured:
Assay type in all cases: in vivo
[1] = tested on: Drosophila suzukii (SWD); assay: SWD laboratory two-choice oviposition bioassay on raspberries; parameters: key to Behavioral activity (SWD oviposition group): Negative: “SWD negative” compounds (i.e., SWD oviposition was reduced); Neutral: “SWD neutral” compounds (i.e., no effect on oviposition); conditions: for Behavioral activity (SWD oviposition group): individual CFA component; for Behavioral activity (SWD oviposition group) / effect on SWD oviposition vs control / eggs oviposited among all treated raspberries: two-choice; for reduced SWD oviposition / SWD oviposition deterrence / effect on SWD oviposition vs control / eggs oviposited among all treated raspberries: individual compound; for reduced SWD oviposition: 0.2 mg dose; for SWD oviposition deterrence: 2 mg dose; for effect on SWD oviposition vs control / eggs oviposited among all treated raspberries: 20 mg dose
Experimental: Laboratory choice test 1 Oviposition bioassays were conducted at USDA-ARS in Hilo, Hawaii using a laboratory two-choice cage experimental set-up with organic raspberries purchased from a local grocery as an oviposition substrate. For all laboratory assays listed below, the receptacles of the raspberries were stuffed with cotton to prevent flies from ovipositing on the interior of the fruit as described previously in Cha D H et al. (2021, supra). The two-choice oviposition bioassay was conducted over 24 hours in screened cages (30 cm W×30 cm L×30 cm H; BugDorm-2120 Insect tent; shop.bugdorm.com) with 30 female and 10 male SWD (7-8 days old) released per cage. Each cage was provided with cotton moistened with water in a 20 mL deli cup and two 30 mL deli cups; one with two raspberries treated with CFA diluted in hexane and the other with two raspberries treated with hexane only. Each raspberry was surface-treated either with 200 μL of hexane or 200 μL of CFA in one of three doses (20, 2, or 0.2 mg CFA/200 μL hexane), placed into a fume hood for 10 minutes or until used in the bioassay. The deli cups with the treated berries were positioned in the center of the floor of the screened cage, 17 cm apart from each other. Female flies were allowed to oviposit on the surface of raspberries for 24 hours. At the conclusion of the bioassay, each 30 mL deli cup containing two raspberries was moved into a 600 mL deli cup with a mesh cap, held for 8 days (22.1±1.9° C., 71.7±3.1% RH, 16:8 L:D), when the number of larvae and pupae were counted. The experiment was replicated four times per treatment. Laboratory choice test 2 A series of bioassays were conducted in Hilo, Hawaii to identify key bioactive deterrent components of CFA for SWD using the same two-choice bioassay described above. […] Due to solubility differences, ethanol was used as control and for dilution of C16:0 and C18:0, while hexane was used as control and for dilution of the other six compounds tested. Based on the outcome of these bioassays, the eight free fatty acid components of CFA were grouped into two groups; “SWD negative” compounds (i.e., SWD oviposition was reduced) and “SWD neutral” compounds (i.e., no effect on oviposition), and tested whether the blend of “SWD negative” compounds had the same oviposition deterrence as the CFA at their equivalent concentrations as in CFA (see Table 2). The oviposition deterrence of the blend of “SWD negative” compounds was first compared to hexane at three different doses (20, 2 and 0.2 mg CFA equivalent/raspberry) and subsequently compared to CFA at 2 mg equivalent dose.

[2] = tested on: Drosophila suzukii (SWD); assay: SWD laboratory no-choice oviposition test on raspberries; conditions: 20 mg CFA or 20 mg CFA equivalent dose, 24 hours
Experimental: Laboratory no-choice test The oviposition deterrence of the key-component blend determined from the “Laboratory choice test 2” described above (2c blend composed of C8:0 and C10:0; Table 2) was tested using a no-choice bioassay in Geneva, New York, USA using organic raspberries purchased from a local grocery and using 30 cm×30 cm×30 cm screened cages as described above. Each cage held four raspberries on a 10 cm diameter glass petri dish lined with filter paper and assigned to one of five treatments: 1) 20 mg of CFA/200 μL hexane/raspberry, 2) C8:0 at 20 mg CFA equivalent dose/200 μL hexane/raspberry, 3) C10:0 at 20 mg CFA equivalent dose/200 μL hexane/raspberry, 4) 2c blend at 20 mg CFA equivalent dose/200 μL hexane/raspberry, or 5) 200 μL of hexane control/raspberry (see Table 2 for equivalent doses). Twenty SWD females (5 days old) were released into each cage and allowed to oviposit on raspberries over 24 hours in an environmental chamber (25° C., 55% RH, 16:8 L:D). At the end of each trial, the raspberries were inspected under a dissecting microscope and the eggs were counted. The experiment was replicated eight times per treatment.

[3] = tested on: Zeugodacus cucurbitae; assay: Z. cucurbitae two-choice oviposition bioassay on pumpkin juice-infused agar; parameters: key to Behavioral activity (Z. cucurbitae oviposition group): Negative: “negative” (i.e., oviposition reduced); Neutral: “neutral” (i.e., no effect on oviposition); Positive: “positive” (i.e., oviposition increased); conditions: for Behavioral activity (Z. cucurbitae oviposition group): individual CFFA component; for Z. cucurbitae oviposition reduction vs control agar: individual compound, 20 mg dose
Experimental: Oviposition bioassays were conducted with mated female flies, using pumpkin juice-infused agar as an oviposition substrate. A small petri dish (60×15 mm) filled with 10 mL of 1% agar mixed in pumpkin juice was used as an oviposition substrate. The agar plates were surface-treated either with 200 μL of ethanol or 200 μL of CFFA in one of 4 doses tested (20, 2, 0.2, and 0.02 mg/200 μL of ethanol), placed into a fume hood for 10 minutes for solvent evaporation prior to use in bioassays, and positioned upside-down (i.e. treated side down) on top of the 30×30×30 cm (W×L×H) screened cage 17 cm apart from each other (i.e. one each of control and CFFA treated), allowing 20 female flies (14 to 18 day-old) to oviposit on pumpkin juice agar from the bottom through the cage screen for 24 hours. Each cage was provided with a ball of water-saturated cotton, sugar, and protein hydrolysate in separate 30 mL deli cups and two oviposition substrates-one treated with CFFA diluted in ethanol and the other treated with the ethanol control. After 24 hours, Z. cucurbitae eggs in the pumpkin agar were gently separated from the agar in water and the number of eggs were individually counted. The experiment was replicated five times per treatment. CFFA was not an effective oviposition deterrent for Z. cucurbitae which is contrary to our previous work on B. dorsalis (Roh et al., 2023a). […] CFFA components were categorized into three groups “negative” (i.e., oviposition reduced), “neutral” (i.e., no effect on oviposition), and “positive” (i.e., oviposition increased) based on bioassay outcome. Using these categories, further formulations were made to determine key bioactive CFFA components in terms of oviposition deterrence on Z. cucurbitae at the equivalent ratios and concentrations of each component found in CFFA (Zhu et al. 2018). The approach involved testing the bioactivity of the negative-component blend (4c blend) for oviposition deterrence at three different doses (2, 0.2, and 0.02 mg CFFA equivalent/agar), compared with ethanol control. Further, neutral compound is added to the negative blend i.e., ‘negative+neutral’ component blend (5c blend) to identify key compounds for oviposition deterrence. The experiment was replicated five times per treatment.

**Q.** For CCCCCCCC(=O)O [C8:0, caprylic acid], which “Behavioral activity (SWD oviposition group)” value [1] is on record?
**A.** Negative

**Q.** And the “reduced SWD oviposition” value [1]?
**A.** not detected

**Q.** What about the “SWD oviposition deterrence” value [1] of the same compound?
**A.** maintained oviposition deterrence

**Q.** And the “effect on SWD oviposition vs control” value [1]?
**A.** almost completely inhibited oviposition

**Q.** And the “eggs oviposited among all treated raspberries” value [1]?
**A.** zero

**Q.** What about the “effect on SWD oviposition vs solvent control” value [2] of the same compound?
**A.** significantly reduced SWD oviposition

**Q.** And the “effect on Z. cucurbitae oviposition” value ([3]; 0.02 mg dose)?
**A.** not

**Q.** What about the “effect on Z. cucurbitae oviposition” value ([3]; 0.2 mg dose) of the same compound?
**A.** maintained oviposition deterrence

**Q.** What about the “effect on Z. cucurbitae oviposition” value ([3]; 2 mg dose) of the same compound?
**A.** maintained oviposition deterrence

**Q.** And the “Behavioral activity (Z. cucurbitae oviposition group)” value [3]?
**A.** Negative

**Q.** What about the “Z. cucurbitae oviposition reduction vs control agar” value [3] of the same compound?
**A.** 100%

**Q.** For CCCCCCCCCC(=O)O [C10:0, capric acid], which “Behavioral activity (SWD oviposition group)” value [1] is on record?
**A.** Negative

**Q.** What about the “reduced SWD oviposition” value [1] of the same compound?
**A.** not detected

**Q.** What about the “SWD oviposition deterrence” value [1] of the same compound?
**A.** maintained oviposition deterrence

**Q.** What about the “effect on SWD oviposition vs control” value [1] of the same compound?
**A.** almost completely inhibited oviposition

**Q.** What about the “eggs oviposited among all treated raspberries” value [1] of the same compound?
**A.** one

**Q.** And the “effect on SWD oviposition vs solvent control” value [2]?
**A.** significantly reduced SWD oviposition

**Q.** What about the “effect on Z. cucurbitae oviposition” value ([3]; 2 mg dose) of the same compound?
**A.** either lost oviposition deterrence or increased oviposition

**Q.** What about the “Behavioral activity (Z. cucurbitae oviposition group)” value [3] of the same compound?
**A.** Negative

**Q.** And the “Z. cucurbitae oviposition reduction vs control agar” value [3]?
**A.** 74%
